Data published in PubChem BioAssay AID1963974 (Molecular Pharmacology Branch, DTP, NCI, 2024).
Where “and” joins values, the source holds several entries; their conditions need not be identical. Equal values may be shown once.

System: 648629-189-R-J1-PDC spheroids with HUVEC/MSC, viability
Test: Anticancer human tumor 648629-189-R-J1-PDC patient-derived bladder carcinoma cell line growth inhibition [PI3K]
Conditions: for viability, T/C: stronger effect = lower value
In short: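 Targeted small molecules plus PI3K inhibitors, half-log dose series from Cmax (default top 10 microM), were applied to heterotypic spheroids of cancer cells with HUVEC and MSCs. Viability indicated growth inhibition.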

[1] = curve of first compound, second compound 0.0316 µM
[2] = curve of first compound, second compound 0.1 µM
[3] = curve of first compound, second compound 0.316 µM
[4] = curve of first compound, second compound 1 µM
[5] = curve of first compound, second compound 3.16 µM
[6] = curve of first compound, second compound 10 µM
[7] = second compound 0.0316 µM, first compound 0.0316 µM
[8] = second compound 0.0316 µM, first compound 0.1 µM
[9] = second compound 0.0316 µM, first compound 0.316 µM
[10] = second compound 0.0316 µM, first compound 1 µM
[11] = second compound 0.0316 µM, first compound 3.16 µM
[12] = second compound 0.0316 µM, first compound 10 µM
[13] = second compound 0.1 µM, first compound 0.0316 µM
[14] = second compound 0.1 µM, first compound 0.1 µM
[15] = second compound 0.1 µM, first compound 0.316 µM
[16] = second compound 0.1 µM, first compound 1 µM
[17] = second compound 0.1 µM, first compound 3.16 µM
[18] = second compound 0.1 µM, first compound 10 µM
[19] = second compound 0.316 µM, first compound 0.0316 µM
[20] = second compound 0.316 µM, first compound 0.1 µM
[21] = second compound 0.316 µM, first compound 0.316 µM
[22] = second compound 0.316 µM, first compound 1 µM
[23] = second compound 0.316 µM, first compound 3.16 µM
[24] = second compound 0.316 µM, first compound 10 µM
[25] = second compound 1 µM, first compound 0.0316 µM
[26] = second compound 1 µM, first compound 0.1 µM
[27] = second compound 1 µM, first compound 0.316 µM
[28] = second compound 1 µM, first compound 1 µM
[29] = second compound 1 µM, first compound 3.16 µM
[30] = second compound 1 µM, first compound 10 µM
[31] = second compound 3.16 µM, first compound 0.0316 µM
[32] = second compound 3.16 µM, first compound 0.1 µM
[33] = second compound 3.16 µM, first compound 0.316 µM
[34] = second compound 3.16 µM, first compound 1 µM
[35] = second compound 3.16 µM, first compound 3.16 µM
[36] = second compound 3.16 µM, first compound 10 µM
[37] = second compound 10 µM, first compound 0.0316 µM
[38] = second compound 10 µM, first compound 0.1 µM
[39] = second compound 10 µM, first compound 0.316 µM
[40] = second compound 10 µM, first compound 1 µM
[41] = second compound 10 µM, first compound 3.16 µM
[42] = second compound 10 µM, first compound 10 µM
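Further: spheroids exposed to agents for seven days before reading.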
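Wherever viability, T/C is given: percent of vehicle control luminescence where 100% = DMSO treated spheroids.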

Cn1nccc1Nc1nccc(-c2ccn(C(CO)c3ccc(Cl)c(F)c3)c(=O)c2)n1 (stereo not drawn) + Cc1nc(NC(=O)N2CCCC2C(N)=O)sc1-c1ccnc(C(C)(C)C(F)(F)F)c1
IC50 [1]: > 10 µM
IC50 [2]: > 10 µM
IC50 [3]: > 10 µM
IC50 [4]: > 10 µM
IC50 [5]: > 10 µM
IC50 [6]: < 0.0316 µM
viability, T/C [7]: 120%
viability, T/C [8]: 96.2%
viability, T/C [9]: 112%
viability, T/C [10]: 112%
viability, T/C [11]: 111%
viability, T/C [12]: 74.7%
viability, T/C [13]: 93.5%
viability, T/C [14]: 105%
viability, T/C [15]: 108%
viability, T/C [16]: 104%
viability, T/C [17]: 96.1%
viability, T/C [18]: 79.2%
viability, T/C [19]: 94.3%
viability, T/C [20]: 97.6%
viability, T/C [21]: 98.1%
viability, T/C [22]: 102%
viability, T/C [23]: 92.8%
viability, T/C [24]: 75.4%
viability, T/C [25]: 83.3%
viability, T/C [26]: 79.4%
viability, T/C [27]: 72.8%
viability, T/C [28]: 85.7%
viability, T/C [29]: 82.2%
viability, T/C [30]: 70.6%
viability, T/C [31]: 64.4%
viability, T/C [32]: 63.1%
viability, T/C [33]: 56.8%
viability, T/C [34]: 72.1%
viability, T/C [35]: 67.1%
viability, T/C [36]: 67.1%
viability, T/C [37]: 40.2%
viability, T/C [38]: 39.5%
viability, T/C [39]: 41.5%
viability, T/C [40]: 45.5%
viability, T/C [41]: 54.9%
viability, T/C [42]: 55.1%

C[C@@H](NC(=O)c1ncnc(N)c1Cl)c1ncc(C(=O)Nc2cc(C(F)(F)F)c(Cl)cn2)s1
viability, T/C (compound 0.0316 µM): 105% [middle of 4 runs]
viability, T/C (compound 0.1 µM): 98.5% [middle of 4 runs]
viability, T/C (compound 0.316 µM): 103% [middle of 4 runs]
viability, T/C (compound 1 µM): 106% and 107% (2×) and 91.5%
viability, T/C (compound 3.16 µM): 114% [middle of 4 runs]
viability, T/C (compound 10 µM): 117% [middle of 4 runs]
IC50 (curve of compound): > 10 µM

CC(Cn1ccc(-c2ccc(C#N)c(Cl)c2)n1)NC(=O)c1cc(C(C)O)[nH]n1 (stereo not drawn) + CC(Nc1ccc2c(c1)OCCn1cc(N3C(=O)OCC3C(F)F)nc1-2)C(N)=O
IC50 (curve of first compound, second compound 0.00316 µM): > 10 µM
IC50 (curve of first compound, second compound 0.01 µM): > 10 µM
IC50 [1]: > 10 µM
IC50 [2]: > 10 µM
IC50 [3]: > 10 µM
IC50 [4]: > 10 µM
viability, T/C (second compound 0.00316 µM, first compound 0.0316 µM): 99.9%
viability, T/C (second compound 0.00316 µM, first compound 0.1 µM): 97.1%
viability, T/C (second compound 0.00316 µM, first compound 0.316 µM): 92.5%
viability, T/C (second compound 0.00316 µM, first compound 1 µM): 90.1%
viability, T/C (second compound 0.00316 µM, first compound 3.16 µM): 85.7%
viability, T/C (second compound 0.00316 µM, first compound 10 µM): 68.3%
viability, T/C (second compound 0.01 µM, first compound 0.0316 µM): 92.7%
viability, T/C (second compound 0.01 µM, first compound 0.1 µM): 97.2%
viability, T/C (second compound 0.01 µM, first compound 0.316 µM): 92.9%
viability, T/C (second compound 0.01 µM, first compound 1 µM): 88.3%
viability, T/C (second compound 0.01 µM, first compound 3.16 µM): 89.9%
viability, T/C (second compound 0.01 µM, first compound 10 µM): 70.4%
viability, T/C [7]: 97.2%
viability, T/C [8]: 98.7%
viability, T/C [9]: 95.2%
viability, T/C [10]: 83.5%
viability, T/C [11]: 83.8%
viability, T/C [12]: 75.5%
viability, T/C [13]: 106%
viability, T/C [14]: 86.9%
viability, T/C [15]: 85.8%
viability, T/C [16]: 86.2%
viability, T/C [17]: 84.5%
viability, T/C [18]: 72%
viability, T/C [19]: 83.8%
viability, T/C [20]: 87.5%
viability, T/C [21]: 78.1%
viability, T/C [22]: 94.2%
viability, T/C [23]: 72.8%
viability, T/C [24]: 58.2%
viability, T/C [25]: 73.2%
viability, T/C [26]: 71.6%
viability, T/C [27]: 61.5%
viability, T/C [28]: 67.6%
viability, T/C [29]: 60%
viability, T/C [30]: 57.9%

CC1(C)CCC(CN2CCN(c3ccc(C(=O)NS(=O)(=O)c4ccc(NCC5CCOCC5)c([N+](=O)[O-])c4)c(Oc4cnc5[nH]ccc5c4)c3)CC2)=C(c2ccc(Cl)cc2)C1 + CC(Nc1ncnc2nc[nH]c12)c1cc2cccc(Cl)c2c(=O)n1-c1ccccc1
IC50 [1]: > 10 µM
IC50 [2]: > 10 µM
IC50 [3]: > 10 µM
IC50 [4]: > 10 µM
IC50 [5]: > 10 µM
IC50 [6]: > 10 µM
viability, T/C [7]: 112%
viability, T/C [8]: 95.7%
viability, T/C [9]: 97.3%
viability, T/C [10]: 93.1%
viability, T/C [11]: 83.4%
viability, T/C [12]: 70.3%
viability, T/C [13]: 102%
viability, T/C [14]: 85%
viability, T/C [15]: 104%
viability, T/C [16]: 92.3%
viability, T/C [17]: 89.4%
viability, T/C [18]: 64%
viability, T/C [19]: 92.2%
viability, T/C [20]: 109%
viability, T/C [21]: 95.8%
viability, T/C [22]: 94.5%
viability, T/C [23]: 97.9%
viability, T/C [24]: 65.9%
viability, T/C [25]: 95.6%
viability, T/C [26]: 108%
viability, T/C [27]: 102%
viability, T/C [28]: 85.4%
viability, T/C [29]: 90.2%
viability, T/C [30]: 68.4%
viability, T/C [31]: 103%
viability, T/C [32]: 101%
viability, T/C [33]: 91.2%
viability, T/C [34]: 99.5%
viability, T/C [35]: 88.6%
viability, T/C [36]: 60.1%
viability, T/C [37]: 83.7%
viability, T/C [38]: 97%
viability, T/C [39]: 87.8%
viability, T/C [40]: 84.8%
viability, T/C [41]: 68.9%
viability, T/C [42]: 59.2%
